Literature values as cited in patent US20110086074A1, “COMBINATIONS OF NIACIN AND AN OXICAM” (DR. REDDY'S LABORATORIES LTD., priority 2008, published 2011).

Tests used:
[1] = n-octanol/pH 7.4 buffer

Solubility in methanol (methanol) | Solubility in water | Apparent partition coefficient [1] | Compound | Solubility in strong acids and bases (strong acids and bases, compared with water)
very slightly soluble in methanol | practically insoluble in water | 0.1 | Cc1cnc(NC(=O)C2=C(O)c3ccccc3S(=O)(=O)N2C)s1 [Meloxicam, 4-hydroxy-2-methyl-N-(5-methyl-2-thiazolyl)-2H-1,2-benzothiazine-3-carboxamide-1,1-dioxide] | higher solubility observed in strong acids and bases
– | very soluble in water | – | O=C(O)c1cccnc1 [Niacin, 3-pyridinecarboxylic acid] | –
